Test results from patent publication US20130296311A1, “INHIBITORS OF HCV NS5A” (PRESIDIO PHARMACEUTICALS, INC., priority 2010, published 2013).
Where two headings read alike, the source gives them in different places.

System: HCV 1b_Huh-Luc/Neo-ET cell line persistently expressing a bicistronic genotype 1b replicon in Huh 7 cells
Test: HCV replicon assay (luciferase readout, 72 h)
Format: cell-based, HCV genotype 1b
Conditions: Hepatitis C virus
Procedure, shortened: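 Huh 7 cells carrying a bicistronic genotype 1b luciferase/neo replicon received compound in triplicate the day after plating. After 72 h, replicon levels were read as Bright-Glo luciferase activity, expressed as % of control; EC50 was fitted with a four-parameter logistic and determined several times.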

[1] = Huh-7, 72 h, read-out: Inhibition of HCV genotype 1b
[2] = Huh-7, read-out: Inhibition of HCV genotype 1b

SMILES: COC(=O)N[C@H](C(=O)N1CCC[C@H]1c1nc2ccc3cc(C#Cc4ccc(-c5cnc([C@@H]6CCCN6C(=O)[C@@H](NC(=O)OC)C6CCOCC6)[nH]5)cc4F)ccc3c2[nH]1)C(C)C [Compound 1099]
- EC50 [1]: < 1 nM

SMILES: COC(=O)N[C@H](C(=O)N1CCC[C@H]1c1ncc(-c2ccc(C#Cc3ccc(-c4cnc([C@@H]5CCCN5C(=O)[C@@H](Nc5ncccn5)C(C)C)[nH]4)cc3)cc2)[nH]1)C(C)C [Compound 1003]
- EC50 [1]: < 1 nM

SMILES: C[C@@H](NC(=O)[C@@H]1CCCN1C(=O)[C@H](NC(=O)OC(C)(C)C)c1ccccc1)c1ccc(C#Cc2cnc([C@@H]3CCCN3C(=O)[C@H](NC(=O)OC(C)(C)C)c3ccccc3)[nH]2)cc1 [Compound 129]
- EC50 [1]: 10 to 999 nM

SMILES: CC[C@H](C)[C@H](NC(=O)OC)C(=O)N1CCC[C@H]1c1ncc(-c2ccc(C#Cc3ccc(-c4cnc([C@@H]5CCCN5C(=O)[C@@H](NC(=O)OC)[C@@H](C)CC)[nH]4)cc3)cc2)[nH]1 [Compound 1216]
- EC50 [2]: < 1 nM

SMILES: COC(=O)N[C@H](C(=O)N1CCC[C@H]1c1ncc(-c2ccc(C#Cc3ccc(-c4cnc([C@@H]5CCCN5C(=O)[C@@H](NC(=O)OC)C(C)C)[nH]4)cn3)cc2)[nH]1)C(C)C [Compound 1009]
- EC50 [1]: < 1 nM

SMILES: COC(=O)N[C@H](Cc1ccccc1)C(=O)N1CCC[C@H]1c1ncc(-c2ccc(C#Cc3ccc(-c4cnc([C@@H]5CCCN5C(=O)[C@H](NC(=O)OC)c5ccccc5)[nH]4)cc3)cc2)[nH]1 [Compound 180]
- EC50 [1]: < 1 nM

SMILES: C[C@@H](c1ncc(-c2ccc(C#Cc3ccc(-c4cnc([C@@H]5CCCN5C(=O)[C@H](NC(=O)OC(C)(C)C)c5ccccc5)[nH]4)cc3)cc2)[nH]1)N(C)C(=O)[C@H](NC(=O)OC(C)(C)C)c1ccccc1 [Compound 265]
- EC50 [1]: < 1 nM

SMILES: COC(=O)N[C@@H](C(=O)N[C@H](c1ncc(-c2ccc(C#Cc3ccc(-c4cnc([C@@H]5CCCN5C(=O)[C@H](NC(=O)OC)c5ccccc5)[nH]4)cc3)cc2)[nH]1)C(C)C)c1ccccc1 [Compound 282]
- EC50 [1]: < 1 nM

SMILES: COC(=O)N[C@@H](C(=O)N[C@@H](C)c1ncc(-c2ccc(C#Cc3ccc(-c4cnc([C@@H]5CCCN5C(=O)[C@H](NC(=O)OC)C(C)C)[nH]4)cc3)cc2)[nH]1)C(C)C [Compound 290]
- EC50 [1]: > 1000 nM

SMILES: COC(=O)N[C@@H](C)C(=O)N1CCC[C@H]1c1ncc(-c2ccc(C#Cc3ccc(-c4cnc([C@@H]5CCCN5C(=O)[C@@H](c5ccccc5)N5CCOC5=O)[nH]4)cc3)cc2)[nH]1 [Compound 1008]
- EC50 [1]: < 1 nM

SMILES: COC(=O)N[C@H](C(=O)N[C@@H](C)c1ncc(-c2ccc(C#Cc3ccc(-c4cnc([C@H](C)NC(=O)[C@@H](NC(=O)OC)[C@@H](C)O)[nH]4)cc3)cc2)[nH]1)[C@@H](C)O [Compound 969]
- EC50 [1]: < 1 nM

SMILES: CN(C)[C@@H](C(=O)N1CCC[C@H]1c1ncc(-c2ccc(C#Cc3cnc([C@@H]4CCCN4C(=O)[C@H](NC(=O)C4CC4)c4ccccc4)[nH]3)cc2)[nH]1)c1ccccc1 [Compound 131]
- EC50 [1]: < 1 nM

SMILES: COC(=O)N[C@H](C(=O)N1CCC[C@H]1c1ncc(-c2ccc(C#Cc3ccc(-c4cnc([C@@H]5CCCN5C(=O)[C@H](NC(=O)N5CCN(C)CC5)c5ccccc5)[nH]4)cc3)cc2)[nH]1)C(C)C [Compound 989]
- EC50 [1]: < 1 nM

SMILES: COC(=O)N[C@H](C(=O)N1CCC[C@H]1c1ncc(-c2ccc3cc(C#Cc4[nH]c([C@@H]5CCCN5C(=O)[C@@H](NC(=O)OC)C(C)C)nc4C#N)ccc3c2)[nH]1)C(C)C [Compound 1257]
- EC50 [2]: < 1 nM

SMILES: CC(C)[C@H](NC(=O)N1CCOCC1)C(=O)N1CCC[C@H]1c1ncc(-c2ccc(C#Cc3ccc(-c4cnc([C@@H]5CCCN5C(=O)[C@@H](NC(=O)N5CCOCC5)C(C)C)[nH]4)cc3)cc2)[nH]1 [Compound 285]
- EC50 [1]: > 1000 nM

SMILES: COC(=O)N[C@H](C(=O)N1CCC[C@H]1c1ncc(-c2ccc(C#Cc3ccc(-c4cnc([C@@H]5CCCN5C(=O)[C@H](C(C)C)N5CCOC5=O)[nH]4)cc3)cc2)[nH]1)C(C)C [Compound 996]
- EC50 [1]: < 1 nM

SMILES: COC(=O)N[C@@H](C(=O)N1CCC[C@H]1c1ncc(-c2ccc(C#Cc3ccc(-c4cnc([C@@H]5CCCN5C(=O)[C@H](NC(=O)[C@H]5CCCN5)c5ccccc5)[nH]4)cc3)cc2)[nH]1)c1ccccc1 [Compound 207]
- EC50 [1]: < 1 nM

SMILES: CC1(O)CCN(C(=O)N[C@@H](C(=O)N2CCC[C@H]2c2ncc(C#Cc3ccc(-c4ccc(-c5cnc([C@@H]6CCCN6C(=O)[C@H](NC(=O)N6CCC(C)(O)CC6)c6ccccc6)[nH]5)cc4)cc3)[nH]2)c2ccccc2)CC1 [Compound 870]
- EC50 [1]: < 1 nM

SMILES: COC(=O)N[C@@H](C(=O)N1CCC[C@H]1c1ncc(-c2ccc(C#Cc3ccc(-c4cnc([C@@H]5CCCN5C(=O)c5nccn5C)[nH]4)cc3)cc2)[nH]1)c1ccccc1 [Compound 176]
- EC50 [1]: < 1 nM

SMILES: O=C(N[C@@H](C(=O)N1CCC[C@H]1c1ncc(C#Cc2ccc(-c3ccc(-c4cnc([C@@H]5CCCN5C(=O)[C@H](NC(=O)C5CC5)c5ccccc5)[nH]4)cc3)cc2)[nH]1)c1ccccc1)C1CC1 [Compound 760]
- EC50 [1]: < 1 nM

SMILES: COC(=O)NC(C(=O)N1CCC[C@H]1c1nc2ccc(C#Cc3ccc4cc(-c5cnc([C@@H]6CCCN6C(=O)[C@@H](NC(=O)OC)C(C)C)[nH]5)ccc4n3)cc2[nH]1)C(C)C (some centres unmarked) [Compound 1107]
- EC50 [1]: < 1 nM

SMILES: COC(=O)N[C@H](C(=O)N1CCC[C@H]1c1nc2ccc(C#Cc3ccc(-c4cnc([C@@H]5CCCN5C(=O)[C@H](NC(=O)OC)c5ccccc5)[nH]4)cc3)cc2[nH]1)C(C)C [Compound 1022]
- EC50 [1]: < 1 nM

SMILES: CC(C)[C@H](NC(=O)N1CC[C@@H](O)C1)C(=O)N1CCC[C@H]1c1ncc(-c2ccc(C#Cc3ccc(-c4cnc([C@@H]5CCCN5C(=O)[C@@H](NC(=O)N5CC[C@@H](O)C5)C(C)C)[nH]4)cc3)cc2)[nH]1 [Compound 968]
- EC50 [1]: 10 to 999 nM

SMILES: COC(=O)N[C@@H](CC(C)C)C(=O)N1CCC[C@H]1c1ncc(-c2ccc(C#Cc3ccc(-c4cnc([C@@H]5CCCN5C(=O)[C@H](CC(C)C)NC(=O)OC)[nH]4)cc3)cc2)[nH]1 [Compound 961]
- EC50 [1]: < 1 nM

SMILES: COC(=O)N[C@H](C(=O)N1CCC[C@H]1c1nc2ccc(C#Cc3ccc(-c4cnc([C@@H]5CCCN5C(=O)[C@@H](C(C)C)N(C)C)[nH]4)cc3)cc2[nH]1)C(C)C [Compound 865]
- EC50 [1]: < 1 nM

SMILES: COC(=O)N[C@H](C(=O)N1CCC[C@H]1c1nc2ccc(C#Cc3ccc4c(ccc5nc([C@@H]6CCCN6C(=O)[C@@H](NC(=O)OC)[C@@H](C)OC)[nH]c54)c3)cc2[nH]1)C(C)C [Compound 1286]
- EC50 [2]: < 1 nM

SMILES: O=C(N[C@@H](C(=O)N1CCC[C@H]1c1ncc(-c2ccc(C#Cc3ccc(-c4cnc([C@@H]5CCCN5C(=O)[C@@H](c5ccccc5)N5CCCC5)[nH]4)cc3)cc2)[nH]1)c1ccccc1)C1CC1 [Compound 217]
- EC50 [1]: < 1 nM

SMILES: COC(=O)N[C@@H](C(=O)N1CCC[C@H]1c1ncc(C#Cc2ccc(C#Cc3cnc([C@@H]4CCCN4C(=O)[C@@H](c4ccccc4)N4CCCC4)[nH]3)cc2)[nH]1)c1ccccc1 [Compound 311]
- EC50 [1]: < 1 nM

SMILES: COC(=O)N[C@H](C(=O)N1CCC[C@H]1c1ncc(C#Cc2ccc(-c3ccc4nc([C@@H]5CCCN5C(=O)[C@@H](NC(=O)OC)C(C)C)[nH]c4c3)cc2)[nH]1)C(C)C [Compound 1084]
- EC50 [1]: < 1 nM

SMILES: O=C(N[C@@H](C(=O)N1CCC[C@H]1c1cc(-c2ccc(C#Cc3ccc(-c4cnc([C@@H]5CCCN5C(=O)[C@H](NC(=O)C5CC5)c5ccccc5)[nH]4)cc3)cc2)n[nH]1)c1ccccc1)C1CC1 [Compound 212]
- EC50 [1]: < 1 nM

SMILES: CC[C@@H](C(=O)N1CCC[C@H]1c1ncc(-c2ccc(C#Cc3ccc(-c4cnc([C@@H]5CCCN5C(=O)[C@H](NC(=O)OC)c5ccccc5)[nH]4)cc3)cc2)[nH]1)c1ccccc1 [Compound 258]
- EC50 [1]: < 1 nM

SMILES: COC(=O)N[C@H](C(=O)N1CCC[C@H]1c1ncc(-c2ccc3cc(C#Cc4[nH]c([C@@H]5CCCN5C(=O)[C@@H](NC(=O)OC)C(C)C)nc4C(=O)O)ccc3c2)[nH]1)C(C)C [Compound 1267]
- EC50 [2]: < 1 nM

SMILES: COC(=O)N[C@@H](C(=O)N1CCC[C@H]1c1ncc(C#Cc2ccc(-c3cnc([C@@H]4CCCN4C(=O)[C@@H](c4ccccc4)N(C)C)[nH]3)cc2)[nH]1)c1ccccc1 [Compound 123]
- EC50 [1]: < 1 nM

SMILES: COC(=O)N[C@@H](C(=O)N1CCC[C@H]1c1ncc(-c2ccc(C#Cc3ccc(-c4cnc([C@@H]5CCCN5C(=O)[C@H](NC(=O)N5CCC[C@H]5C)c5ccccc5)[nH]4)cc3)cc2)[nH]1)c1ccccc1 [Compound 262]
- EC50 [1]: < 1 nM

SMILES: COC(=O)N[C@@H](C(=O)N1CCC[C@H]1c1ncc(-c2ccc(C#Cc3ccc(-c4cnc([C@@H]5CCCN5C(=O)[C@H](NC(=O)C5(O)CC5)c5ccccc5)[nH]4)cc3)cc2)[nH]1)c1ccccc1 [Compound 277]
- EC50 [1]: < 1 nM

SMILES: CN(C)C(=O)N[C@@H](C(=O)N1CCC[C@H]1c1ncc(C#Cc2ccc(C#Cc3cnc([C@@H]4CCCN4C(=O)[C@H](NC(=O)N(C)C)c4ccccc4)[nH]3)cc2)[nH]1)c1ccccc1 [Compound 308]
- EC50 [1]: < 1 nM

SMILES: O=C(Cc1cccnc1)N[C@@H](C(=O)N1CCC[C@H]1c1cc(-c2ccc(C#Cc3ccc(-c4cnc([C@@H]5CCCN5C(=O)[C@H](NC(=O)Cc5cccnc5)c5ccccc5)[nH]4)cc3)cc2)n[nH]1)c1ccccc1 [Compound 222]
- EC50 [1]: < 1 nM

SMILES: COC(=O)N[C@H](C(=O)N1CCC[C@H]1c1ncc(-c2ccc(C#Cc3ccc(-c4cnc([C@@H]5CCCN5C(=O)[C@@H](c5ccccc5)N5CCOCC5)[nH]4)cc3)cc2)[nH]1)C(C)C [Compound 987]
- EC50 [1]: < 1 nM

SMILES: COC(=O)N[C@@H](C(=O)N1CCC[C@H]1c1ncc(-c2ccc(C#Cc3ccc(-c4cnc([C@@H]5CCCN5C(=O)[C@H](C)c5ccccc5)[nH]4)cc3)cc2)[nH]1)c1ccccc1 [Compound 256]
- EC50 [1]: < 1 nM

SMILES: COC(=O)NC(C(=O)N1CCC[C@H]1c1ncc(-c2ccc(C#Cc3ccc(-c4cnc([C@@H]5CCCN5C(=O)[C@H](NC(=O)OC)[C@H](C)O)[nH]4)cc3)cc2)[nH]1)[C@H](C)O (some centres unmarked) [Compound 978]
- EC50 [1]: 10 to 999 nM

SMILES: CC(C)(C)OC(=O)N[C@@H](C(=O)N1CCC[C@H]1c1cc(-c2ccc(C#Cc3ccc(-c4cnc([C@@H]5CCCN5C(=O)[C@H](NC(=O)OC(C)(C)C)c5ccccc5)[nH]4)cc3)cc2)n[nH]1)c1ccccc1 [Compound 210]
- EC50 [1]: < 1 nM
